Laboratory results taken from patent publication US4634702A, “Quinoxalinemethanol compounds for combatting swine dysentery and as growth promoting factors, method of preparation, and compositions containing them” (priority 1983, dated 1987).
Values after ≈ are worked out from the molar mass of the structure shown.

Assays:
swine dysentery = swine dysentery in swine herd fed G 8 in rations; format: in vivo; conditions: 400 g/ton in rations, herd with dysentery
Experimental: Compound G 8 is mixed with swine feed rations at a level of 200 g/ton and was fed to swine housed in an area where there has been a previous outbreak of swine dysentery. Another herd was housed in a similar area, where there has been a previous outbreak of dysentery. They were fed the same rations as the first herd, but with no G 8 or other drug.
Many members of the herd developed symptoms of dysentery. G 8 was then added with the rations at a level of 400 g/ton.

[1] = Acute toxicity of G 8 in female mice; format: in vivo, mouse
Experimental: (§1) Furthermore, G8 compound was tested for acute toxicity by several modes of administration in four species, namely mouse, rat, guinea pig and rabbit. […] The test results are given below in tables 1, 2, 3 and 4.
Acute toxicity of G 8 in female mice

[2] = growth promotion in baby-swines fed G 8 in rations; format: in vivo, swine
Experimental: The effect of compound G 8 was tested in feed rations for baby-swines.
Compound G 8 was added at a dosage level of 100 g/ton of feed. Five replicate groups of 10 animals (5 males and 5 females), age one day, were fed the ration containing G 8 and compared to 5 replicate groups of animals (5 males and 5 females) which received the same ration but without G 8.
The test period was 28 days.

[3] = acute toxicity by several modes of administration in four species (overall); format: in vivo, guinea pig and rabbit; conditions: mouse, rat, guinea pig, rabbit
Experimental: as §1

[4] = Acute Toxicity of G 8 in the Rat; format: in vivo; conditions: for Dead/Treated within 21 days / Body Weight (m ± SEM), Termination: first experiment
Experimental: as §1
Acute Toxicity of G 8 in the Rat

[5] = Subacute toxicity of G 8 in female rats; format: in vivo, rat; conditions: 2 g/kg/day, gastric gavage, 21 days
Experimental: (§2) In view of the favorable acute toxicity data, compound G 8 was administered orally in sub-acute, but relatively large doses, to mice and rats for 15 days.
Subacute toxicity of G 8 in female rats
Daily dose: […] of G 8 in female rats by gastric
Daily dose: 2 g/kg/day of G 8 by gastric gavage for 21 days

[6] = Chronic toxicity in female mice; format: in vivo
From the text: Chronic toxicity has been studied in female mice.

Treponema hyodysenteriae = assay: in vitro minimum inhibitory concentration / activity against Treponema hyodysenteriae; format: cell-based
Experimental: Compound G 8 has been tested "in vitro" against Treponema hyodysenteriae by a known technique. The minimum inhibitory concentration (the lowest concentration of compound in a dilution series where growth is inhibited) was 0.1 μg/ml.

[7] = Acute toxicity of G 8 in the guinea pig by oral administration; format: in vivo
Experimental: as §1
Acute toxicity of G 8 in the guinea pig by oral administration

[8] = teratogenetic study with male and female mice and rats; format: in vivo
Experimental: Furthermore, teratogenetic study was conducted with male and female mice and rats.

[9] = Acute toxicity of G 8 in the rabbit by esophageal administration; format: in vivo
Experimental: as §1
Acute toxicity of G 8 in the rabbit by esophageal administration

[10] = Subacute toxicity of G 8 in the mouse; format: in vivo; conditions: for SGPT / SGOT: 1 g/kg/day, 24 hrs. after last dose
Experimental: as §2
Subacute toxicity of G 8 in the mouse
Daily dose: 500 mg. G 8 by gastric gavage for 15 days
Daily dose: 1 g/kg/day for 15 days
b. SGOT and SGPT (24 hrs. after last dose)

COc1ccc(O)c(C(O)c2c[n+]([O-])c3ccccc3[n+]2[O-])c1 (centres unmarked) [G 8, quinoxalyl-N^1,N^4-dioxide-2-hydroxy-5-methoxy-phenylcarbinol]
dysentery symptoms of diseased members (swine dysentery): the diseased members became free from dysentery symptoms
spread of the disease (swine dysentery): The spread of the disease was halted
Dead/Treated animals ([1]; endoperitoneal, 250 mg/kg, after 7 days): 0/18
Dead/Treated animals ([1]; endoperitoneal, 500 mg/kg, after 7 days): 6/12
Dead/Treated animals ([1]; endoperitoneal, 1000 mg/kg, after 2 days): 6/6
Dead/Treated animals ([1]; endoperitoneal, 1000 mg/kg, after 7 days): 6/6
Dead/Treated animals ([1]; endoperitoneal, 2000 mg/kg, after 1 day): 6/6
Dead/Treated animals ([1]; endoperitoneal, 2000 mg/kg, after 7 days): 6/6
Dead/Treated animals ([1]; oral, 1000 mg/kg, after 7 days): 0/12
Dead/Treated animals ([1]; oral, 2000 mg/kg, after 7 days): 0/12
Dead/Treated animals ([1]; oral, 4000 mg/kg, after 4 days): 1/12
Dead/Treated animals ([1]; oral, 4000 mg/kg, after 7 days): 1/12
Improvement, % (body weight gain) ([2]; 100 g/ton of feed, 28 days, combined average vs ration without G 8): 3.1%
Improvement, % (feed/gain ratio) ([2]; 100 g/ton of feed, 28 days, vs ration without G 8): 2.8%
Feed/gain ratio ([2]; 100 g/ton of feed, 28 days, without G 8: 1.82): 1.77
Body weight gain/swine, Females ([2]; 100 g/ton of feed, 28 days, without G 8: 5740 g): 5880 g
Body weight gain/swine, Combined average ([2]; 100 g/ton of feed, 28 days, without G 8: 6000): 6190
Body weight gain/swine, Males ([2]; 100 g/ton of feed, 28 days, without G 8: 6150 g): 6480 g
growth promoting action ([2]; qualitative statement): effective growth promoting factor
order of acute toxicity [3]: low order toxicity
order of acute toxicity ([3]; listed as G8): low order of toxicity
Dead/Treated within 7 days ([4]; cumulative data regardless of animal sex, intraperitoneal, 500 mg/kg): 4/16
Dead/Treated within 7 days ([4]; cumulative data regardless of animal sex, oral, 4000 mg/kg): 0/16
Dead/Treated within 21 days ([4]; female, endoperitoneal, 500 mg/kg): 2/4
Dead/Treated within 21 days ([4]; female, oral, 4000 mg/kg): 0/4
Body Weight (m ± SEM), Termination ([4]; female, oral, 4000 mg/kg, start 201.2 ± 4.2, vehicle 189.2 ± 3.9 to 230.0 ± 10.5): 238.2 ± 12.1 g
Dead/Treated within 21 days ([4]; male, endoperitoneal, 500 mg/kg): 1/4
Body Weight (m ± SEM), Termination ([4]; male, endoperitoneal, 500 mg/kg, start 234.0 ± 6.2, vehicle 230.0 ± 5.7 to 324.0 ± 8.7): 314.3 ± 10.3 g
Dead/Treated within 21 days ([4]; male, oral, 4000 mg/kg): 0/4
Body Weight (m ± SEM), Termination ([4]; male, oral, 4000 mg/kg, start 234.5 ± 13.8, vehicle 233.7 ± 3.7 to 331.0 ± 0.5): 288.7 ± 13.8 g
Dead/Treated within 7 days ([4]; second experiment, female, intraperitoneal, 500 mg/kg): 0/4
Body weight (±SE), Termination ([4]; second experiment, female, intraperitoneal, 500 mg/kg, start 232.5 ± 5.9): 218.2 ± 7.0 g
Dead/Treated within 7 days ([4]; second experiment, female, oral, 4000 mg/kg): 0/4
Body weight (±SE), Termination ([4]; second experiment, female, oral, 4000 mg/kg, start 252.0 ± 16.6): 253.5 ± 12.1 g
Dead/Treated within 7 days ([4]; second experiment, male, intraperitoneal, 500 mg/kg): 2/4
Dead/Treated within 7 days ([4]; second experiment, male, oral, 4000 mg/kg): 0/4
Body weight (±SE), Termination ([4]; second experiment, male, oral, 4000 mg/kg, start 222.5 ± 6.2): 231.7 ± 15.7 g
Average percent weight of fresh organs (m ± SE), Lung ([5]; 5 animals, NS, vehicle 0.85 ± 0.06): 1.08 ± 0.09%
Average percent weight of fresh organs (m ± SE), Kidneys ([5]; 5 animals, NS, vehicle 0.95 ± 0.04): 1.04 ± 0.3%
Average percent weight of fresh organs (m ± SE), Liver ([5]; 5 animals, vehicle 3.45 ± 0.07): 4.54 ± 0.10%
Dead/Treated ([5]; death caused by a mistake in esophagus incannulation): 1/6
Body weight in g (m ± SE), Termination ([5]; start 204.1 ± 2.0, vehicle 200.0 ± 4.1 to 233.2 ± 5.1): 210.6 ± 9.6 g
Chronic toxicity [6]: very satisfactory
action against Treponema hyodysenteriae (specificity) (Treponema hyodysenteriae): clearly specific action against Treponema hyodysenteriae
MIC (Treponema hyodysenteriae; Brachyspira hyodysenteriae, read-out: minimum inhibitory concentration): 0.1 µg/mL (≈ 0.318 µM)
Dead/Treated within 21 days ([7]; 500 mg/kg): 0/4
Dead/Treated within 21 days ([7]; 1000 mg/kg): 1/4
Dead/Treated within 21 days ([7]; 2000 mg/kg): 5/6
Dead/Treated within 21 days ([7]; 4000 mg/kg): 6/6
malformations [8]: No malformations in either group were observed
number of young delivered live at birth [8]: comparable with controls
Dead/Treated within 7 days ([9]; 500 mg/kg): 0/2
Dead/Treated within 7 days ([9]; 1000 mg/kg): 0/4
Body weight (m ± SE), Termination ([9]; 1000 mg/kg, start 2037 ± 104.3, vehicle 2135 ± 75 to 2262 ± 215): 1922.5 ± 71.5 g
Dead/Treated within 7 days ([9]; 2000 mg/kg): 0/2
Body weight, Termination ([9]; 2000 mg/kg, start 2250-2150): 2180 + 2140 g
Dead/Treated ([10]; 500 mg/kg/day, gastric gavage, 15 days): 0/10
Fresh organ to body weight ratio, Kidneys ([10]; 500 mg/kg/day, gastric gavage, 15 days, vehicle 1.4 ± 0.1): 1.5 ± 0.1
Fresh organ to body weight ratio, Liver ([10]; 500 mg/kg/day, gastric gavage, 15 days, vehicle 5.2 ± 0.2): 5.9 ± 0.3
% Body weight change (m ± SE) ([10]; 500 mg/kg/day, gastric gavage, 15 days, vehicle 20.4 ± 4.2): -8.1 ± 3.9%
Dead/Treated ([10]; 1 g/kg/day for 15 days, oral, in adraganth gum): 3/12
% Body weight change ([10]; 1 g/kg/day for 15 days, oral, in adraganth gum, vehicle 25.04 ± 1.18): 16.27 ± 1.31%
Dead/Treated ([10]; 1 g/kg/day for 15 days, oral, in water): 2/12
% Body weight change ([10]; 1 g/kg/day for 15 days, oral, in water, vehicle 24.54 ± 0.64): 18.5 ± 0.75%
SGPT ([10]; oral, in adraganth gum, vehicle 6): 10 Units/ml
SGOT ([10]; oral, in adraganth gum, vehicle 119): 132 Units/ml
SGPT ([10]; oral, in water, vehicle 4): 9 Units/ml
SGOT ([10]; oral, in water, vehicle 116): 124 Units/ml
